These results are taken from ChEMBL document CHEMBL1126104, “Synthesis and antiviral activity of some new S-adenosyl-L-homocysteine derivatives” (1992).

Values after ≈ are worked out from the molar mass of the structure shown.

The test system of assay [1] is Human immunodeficiency virus 1. The assay is described as follows: Antiviral activity against (HIV-1) in MT-4 cells Value in parentheses is inhibitory concentration for cell growth (MT-4). The class given is functional, MT4.
Assay [2] deals with Human alphaherpesvirus 2. The experiment in a line: Antiviral activity against HSV-2(G) strain in primary rabbit kidney (PRK) / embryonic skin-muscle (E6SM) fibroblast culture lines. Format: functional. As to conditions: Human alphaherpesvirus 2, Muscle tissue.
The test system of assay [3] is Coxsackievirus B4. The assay is described as follows: Antiviral activity against coxsackie B4 in Vero cell culture lines. Format: functional. As to conditions: Enterovirus B.
Assay [4] relates to Coxsackievirus B4. The assay is described as follows: Antiviral activity against coxsackie B4 virus in HeLa cell culture lines. The class given is functional. Particulars: Enterovirus B.
Assay [5] has as its system Semliki Forest virus. The experiment in a line: Antiviral activity against semliki forest virus (SFV) in Vero cell culture lines. The class given is functional.
For assay [6], the system named is Vesicular stomatitis virus. The assay is described as follows: Antiviral activity against vesicular stomatitis virus (VSV) in HeLa cell culture lines,. The class given is functional.
In assay [7] the test system is Vesicular stomatitis virus. The experiment in a line: Antiviral activity against vesicular stomatitis virus (VSV) in primary rabbit kidney (PRK) / embryonic skin-muscle (E6SM) fibroblast culture lines. The class given is functional. Particulars: Muscle tissue.
Assay [8] deals with Vaccinia virus. The assay is described as follows: Antiviral activity against vaccinia virus (VV) in primary rabbit kidney (PRK) / embryonic skin-muscle (E6SM) fibroblast culture lines. The class given is functional. As to conditions: Orthopoxvirus vaccinia, Muscle tissue.
The subject of assay [9] is Human alphaherpesvirus 1. The assay is described as follows: Antiviral activity against HSV-1(KOS) strain in primary rabbit kidney (PRK) / embryonic skin-muscle (E6SM) fibroblast culture lines. As to conditions: Human alphaherpesvirus 1, Muscle tissue. Format: functional.
In assay [10] the test system is Poliovirus 1. The assay is described as follows: Antiviral activity against polio virus type 1 in HeLa cell culture lines. The class given is functional. As to conditions: Enterovirus C.
In assay [11] the test system is Human respirovirus 3. The experiment in a line: Antiviral activity against parainfluenza virus type 3 in Vero cell culture lines. Format: functional.
For assay [12], the system named is Sindbis virus. The experiment in a line: Antiviral activity against sindbis virus in Vero cell culture lines. Format: functional.
The test system of assay [13] is Mammalian orthoreovirus 1. The assay is described as follows: Antiviral activity against reovirus type 1 in Vero cell culture lines. The class given is functional.

As to `COC(=O)C(N)CCSC[C@H]1OC(n2ccc3c(N)ncnc32)[C@H](O)[C@@H]1O` (stereo partly drawn), the MIC is over 20 µg/mL in assay [1]; 20 µg/mL (≈ 50.3 µM) in assay [2]; over 100 µg/mL in [3]; over 200 µg/mL in [4]; over 200 µg/mL in assay [5]; 20 µg/mL (≈ 50.3 µM) in assay [6]. Besides, the MIC in assay [7] was 20 µg/mL (≈ 50.3 µM); in assay [8] it was 4 µg/mL (≈ 10.1 µM); in [9], over 100 µg/mL; in assay [10], over 200 µg/mL; in assay [11], over 200 µg/mL; in assay [12], over 200 µg/mL. This molecule showed an MIC in assay [13] of over 200 µg/mL.

`Nc1ncnc2c(C3O[C@H](CSCCC(N)C(=O)O)[C@@H](O)[C@H]3O)n[nH]c12` (stereo partly drawn): the MIC is over 4 µg/mL in assay [1]; 400 µg/mL (≈ 1040 µM) in assay [2]; over 100 µg/mL in assay [3]; over 400 µg/mL in [4]; over 100 µg/mL in [5]; 150 µg/mL (≈ 390 µM) in assay [6]. In addition, the MIC is 20 µg/mL (≈ 52 µM) in [7]; 100 µg/mL (≈ 260 µM) in assay [8]; 200 µg/mL (≈ 520 µM) in assay [9]; over 400 µg/mL in assay [10]; 30 µg/mL (≈ 78 µM) in assay [11]; over 100 µg/mL in [12]. Also, in [13], the MIC is over 100 µg/mL.

In the case of `CCCOC(=O)C(N)CCSC[C@H]1OC(n2ccc3c(N)ncnc32)[C@H](O)[C@@H]1O` (stereo partly drawn), the MIC in assay [1] is over 20 µg/mL; in [2] it was 2 µg/mL (≈ 4.7 µM); in [3], 70 µg/mL (≈ 165 µM); in [4], over 100 µg/mL; in [5] it was over 150 µg/mL; in [6], 20 µg/mL (≈ 47 µM). Besides, the MIC was 2 µg/mL (≈ 4.7 µM) in assay [7]; 1 µg/mL (≈ 2.35 µM) in assay [8]; 10 µg/mL (≈ 23.5 µM) in assay [9]; over 100 µg/mL in assay [10]; over 70 µg/mL in assay [11]; over 70 µg/mL in assay [12]. In assay [13], this molecule yielded an MIC of over 70 µg/mL.

Turning to `CC(C)OC(=O)C(CCSC[C@H]1OC(n2ccc3c(N)ncnc32)[C@H](O)[C@@H]1O)NC(=O)C(F)(F)F` (stereo partly drawn), the MIC in assay [1] was over 4 µg/mL; in assay [2], 10 µg/mL (≈ 19.2 µM); in [3], over 50 µg/mL; in assay [4], over 100 µg/mL; in assay [5] it was over 100 µg/mL; in assay [6] it was 20 µg/mL (≈ 38.3 µM). For the same molecule, the MIC in assay [7] is 5 µg/mL (≈ 9.59 µM); in assay [8], 1 µg/mL (≈ 1.92 µM); in [9], 20 µg/mL (≈ 38.3 µM); in assay [10], over 100 µg/mL; in [11], over 50 µg/mL; in [12] it was over 70 µg/mL. Besides, the MIC in assay [13] was over 50 µg/mL.

For the molecule `CCCOC(=O)C(CCSC[C@H]1OC(n2ccc3c(N)ncnc32)[C@H](O)[C@@H]1O)NC(C)=O` (stereo partly drawn), the MIC was over 4 µg/mL in assay [1]; 20 µg/mL (≈ 42.8 µM) in assay [2]; 20 µg/mL (≈ 42.8 µM) in assay [3]; 20 µg/mL (≈ 42.8 µM) in assay [4]; over 40 µg/mL in assay [5]; 20 µg/mL (≈ 42.8 µM) in [6]. For the same molecule, the MIC in assay [7] is 7 µg/mL (≈ 15 µM); in [8] it was 7 µg/mL (≈ 15 µM); in assay [9] it was 40 µg/mL (≈ 85.6 µM); in assay [10] it was 40 µg/mL (≈ 85.6 µM); in assay [11] it was 20 µg/mL (≈ 42.8 µM); in assay [12] it was over 40 µg/mL. Further, in assay [13], the MIC is 15 µg/mL (≈ 32.1 µM).

On to `CC(C)OC(=O)C(N)CCSC[C@H]1OC(n2ccc3c(N)ncnc32)[C@H](O)[C@@H]1O` (stereo partly drawn), for which the MIC was over 1.6 µg/mL in assay [1]; over 10 µg/mL in assay [2]; over 100 µg/mL in assay [3]; over 40 µg/mL in assay [4]; over 100 µg/mL in assay [5]; 7 µg/mL (≈ 16.5 µM) in assay [6]. In addition, the MIC in assay [7] was 7 µg/mL (≈ 16.5 µM); in [8], 0.2 µg/mL (≈ 0.47 µM); in assay [9], over 10 µg/mL; in assay [10] it was over 100 µg/mL; in assay [11] it was 20 µg/mL (≈ 47 µM); in [12] it was over 40 µg/mL. In addition, the MIC in assay [13] was over 40 µg/mL.

On to `COCC(=O)NC(CCSC[C@H]1OC(n2ccc3c(N)ncnc32)[C@H](O)[C@@H]1O)C(=O)OC(C)C` (stereo partly drawn), for which the MIC in assay [1] is over 100 µg/mL; in assay [2], 70 µg/mL (≈ 141 µM); in assay [3] it was over 100 µg/mL; in assay [4] it was over 200 µg/mL; in assay [5], over 200 µg/mL; in assay [6] it was 100 µg/mL (≈ 201 µM). The MIC in [7] is 20 µg/mL (≈ 40.2 µM); in assay [8] it was 7 µg/mL (≈ 14.1 µM); in [9], over 150 µg/mL; in [10], over 200 µg/mL; in assay [11], over 200 µg/mL; in [12], over 200 µg/mL. In assay [13], this molecule displayed an MIC of over 200 µg/mL.

As to `Nc1ncnc2c1ccn2[C@@H]1O[C@H](CO)[C@@H](O)[C@H]1O` [TUBERCIDIN], the MIC was 0.2 µg/mL (≈ 0.751 µM) in [2]; 0.07 µg/mL (≈ 0.263 µM) in assay [3]; 0.2 µg/mL (≈ 0.751 µM) in [4]; over 0.1 µg/mL in assay [5]; 0.07 µg/mL (≈ 0.263 µM) in [6]; 0.07 µg/mL (≈ 0.263 µM) in [7]. The MIC is over 0.1 µg/mL in assay [8]; over 0.2 µg/mL in [9]; 0.2 µg/mL (≈ 0.751 µM) in assay [10]; 0.02 µg/mL (≈ 0.0751 µM) in [11]; over 0.1 µg/mL in assay [12]; 0.02 µg/mL (≈ 0.0751 µM) in assay [13].
